Assay results published in patent publication US7906510B2, “Amide derivative and pharmaceutical composition containing the same” (Dainippon Sumito Pharma Co., Ltd., priority 2008, dated 2011).
Counter-ions that a name gives are not always drawn.

How the values were obtained:
Male Slc-ddy mice = test: Mouse defecation assay; assay type: in vivo; set-up: key: −: No Effect; +: Moderately Improved (p<0.05); ++: Significantly Improved (p<0.01); details: 3 mg/kg orally; stool weight 30, 60 and 120 minutes after administration; Dunnett assay vs control
Protocol: Male Slc-ddy mice (body weight 25 to 30 g) were used and allowed to ingest food and water ad libitum until commencement of experiments.
A group of 25 mice was divided into 5 groups, which 5 mice each per group were respectively transferred to fasting cages to adjust to new environments for about 1 hour. Then, each mouse was orally administered 3 mg/kg suspension of a test compound in 0.5% tragacanth solution to measure each stool weight of each group 30, 60, and 120 minutes after oral administration.
Efficacies were evaluated by Dunnett assay between test compounds and control.

[1] = tested on: Male Slc-Hartley guinea pigs; test: Electrocardiographic assay for guinea pig; details: dose extending 5% of QTc; i.v. infusion for 15 minutes, anesthetized guinea pigs, ECG lead II
Protocol: Male Slc-Hartley guinea pigs were anesthetized to determine electrocardiogram (lead II) under artificial respiration. A drug solution was continuously and intravenously infused via cannula indwelled in cervical veins at a flow rate: 0.2 ml/kg/min for 15 minutes.

5-HT4 receptor = target: T1, 5-HT4 receptor (Cavia porcellus, UniProt O70528); test: Serotonin 4 (5-HT4) receptor binding assay; set-up: species or system guinea pig; details: inhibition of specific binding of 0.1 nM [3H]-GR113808; guinea pig striatum membrane preparations; 37° C., 30 minutes; read-out: IC50
T1 construct: the mixture was suspended to give receptor membrane preparations; from tissue; host or cells: guinea pig (Slc-Hartley) brain striatum membranes
Protocol: 5-HT4 receptor binding assay and preparations of receptor membrane preparations were carried out according to a method of Grossman et al. [see British J. Pharmacol., (1993) 109, 618].
Slc-Hartley guinea pigs (body weight 300 to 400 g) were decapitated to remove brain rapidly, and striatum was isolated. To the obtained tissues were added fifteenfold of Hepes buffer (50 mM, pH7.4, 4° C.), and the mixture was homogenized by Teflon® homogenizer and centrifuged at 48,000×g (4° C.) for 15 minutes. To the resulting precipitate was added Hepes buffer (1 ml) to 30 mg by wet weight of tissues, and the mixture was suspended to give receptor membrane preparations.
0.1 nM [^3H]-GR113808 {chemical name: [1-[2-(methylsulfonylamino)ethyl]-4-piperidinyl]methyl 1-methylindole-3-carboxylate}, receptor membrane preparations, and Hepes buffer (50 mM, pH7.4, 4° C., 1 ml) containing test compounds or 30 μM serotonin were placed in an assay tube, and incubated at 37° C. for 30 minutes. On quenching the reaction, the mixture was rapidly filtered on whatman GF/B filter, which was presoaked in 0.1% polyethyleneimine for 1 hour, by using Brandel cell Harvester, and washed with ice-cooled 50 mM Tris-HCl (pH7.7, 4 ml) three times. To the filter after filtration was added ACS II scintillator, and then a radioactivity was determined by a liquid scintillation counter.
50% inhibition concentrations (IC50) were determined from inhibition rates of test compounds to specific bindings which were obtained by subtracting nonspecific bindings from total binding amounts of [^3H]-GR113808.

T1 sequence (O70528 whole entry): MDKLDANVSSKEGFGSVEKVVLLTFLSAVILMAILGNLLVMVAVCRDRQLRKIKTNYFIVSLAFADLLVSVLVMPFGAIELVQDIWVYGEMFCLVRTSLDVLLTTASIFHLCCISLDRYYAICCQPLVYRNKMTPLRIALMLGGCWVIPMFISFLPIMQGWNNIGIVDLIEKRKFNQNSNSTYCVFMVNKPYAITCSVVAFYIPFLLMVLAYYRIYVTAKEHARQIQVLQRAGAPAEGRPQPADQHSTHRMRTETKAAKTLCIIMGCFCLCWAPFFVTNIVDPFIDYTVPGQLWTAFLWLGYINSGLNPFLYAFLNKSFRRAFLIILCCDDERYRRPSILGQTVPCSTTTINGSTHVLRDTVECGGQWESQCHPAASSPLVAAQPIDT

IC50 (5-HT4 receptor) | Structure (SMILES) | melting point | Effect (Male Slc-ddy mice) | ED5% (mg/kg,i.v.) [1]
 | CCOc1cc(N)c(Cl)cc1C(=O)NCC1CN(CC2CCN(C(=O)OC(C)(C)C)CC2)CCO1 (stereo not shown) (as salt: fumarate) [Example 4, 4-amino-N-[{4-[(1-(tert-butoxycarbonyl)-4-piperidinyl)methyl]-2-morpholinyl}-methyl]-5-chloro-2-ethoxybenzamide 1.5 fumarate] | 167 to 169 °C |  | 
 | CCOc1cc(N)c(Br)cc1C(=O)NCC1CN(CC2CCN(C(=O)OC(C)(C)C)CC2)CCO1 (stereo not shown) (as salt: fumarate) [Example 11, 4-amino-5-bromo-N-[{4-[(1-(tert-butoxycarbonyl)-4-piperidinyl)methyl]-2-morpholinyl}methyl]-2-ethoxybenzamide 1.5 fumarate] | 171 to 172 °C |  | 
 | COc1cc(N)c(Cl)cc1C(=O)NC[C@H]1CN(CC2CCN(C(=O)CO)CC2)CCO1 (as salt: hydrobromid) (hydrate or solvate) [Example 220, (S)-4-amino-5-chloro-N-[{4-[(1-hydroxyacetyl-4-piperidinyl)methyl]-2-morpholinyl}methyl]-2-methoxybenzamide hydrobromide 2 hydrate] | 215 to 216 °C (dec.) |  | 
 | COc1cc(N)c(Cl)cc1C(=O)N[C@H]1CCN(CCCOc2ccc(F)cc2)C[C@H]1OC (relative stereo) [Cisapride, cis-4-amino-5-chloro-N-[1-[3-(4-fluorophenoxy)propyl]-3-methoxy-4-piperidinyl]-2-methoxybenzamide, reference compound] |  | − | 0.3 mg/kg
 | COc1cc(N)c(Cl)cc1C(=O)NC[C@H]1CN(CC2CCN(S(=O)(=O)N(C)C)CC2)CCO1.O=C(O)/C=C/C(=O)O [Example 80] |  | + | >30 mg/kg
 | COC(=O)N1CCC(CN2CCO[C@@H](CNC(=O)c3cc(Cl)c(N)cc3OC)C2)CC1 [Example 92] |  | + | >30 mg/kg
11.9 nM | COc1cc(N)c(Cl)cc1C(=O)NC[C@H]1CN(CC2CCN(S(C)(=O)=O)CC2)CCO1 [Example 94] |  | ++ | >30 mg/kg
 | C=CCOC(=O)N1CCC(CN2CCO[C@@H](CNC(=O)c3cc(Cl)c(N)cc3OC)C2)CC1 [Example 100] |  | ++ | >30 mg/kg
2.48 nM | COc1cc(N)c(Cl)cc1C(=O)NC[C@H]1CN(CC2CCN(C(=O)c3ccc(Cl)cc3)CC2)CCO1 [Example 115] |  | + | 
0.68 nM | CCOc1cc(N)c(Cl)cc1C(=O)NC[C@H]1CN(CC2CCN(C(=O)c3ccc(Cl)cc3)CC2)CCO1 [Example 116] |  | + | >30 mg/kg
2.05 nM | COc1cc(N)c(Cl)cc1C(=O)NC[C@H]1CN(CC2CCN(C(=O)c3cccc(C)c3)CC2)CCO1 [Example 119] |  | + | >30 mg/kg
0.23 nM | CCOc1cc(N)c(Cl)cc1C(=O)NC[C@H]1CN(CC2CCN(C(=O)c3ccc(C)cc3)CC2)CCO1 [Example 121] |  | ++ | >30 mg/kg
0.87 nM | CCc1ccc(C(=O)N2CCC(CN3CCO[C@@H](CNC(=O)c4cc(Cl)c(N)cc4OC)C3)CC2)cc1 [Example 122] |  | + | >30 mg/kg
1.95 nM | COc1cccc(C(=O)N2CCC(CN3CCO[C@@H](CNC(=O)c4cc(Cl)c(N)cc4OC)C3)CC2)c1 [Example 124] |  | + | >30 mg/kg
3.51 nM | COc1ccc(C(=O)N2CCC(CN3CCO[C@@H](CNC(=O)c4cc(Cl)c(N)cc4OC)C3)CC2)cc1 [Example 125] |  | ++ | >30 mg/kg
 | COCC(=O)N1CCC(CN2CCO[C@@H](CNC(=O)c3cc(Cl)c(N)cc3OC)C2)CC1 [Example 132] |  | ++ | >30 mg/kg
6.04 nM | CN(C)C(=O)N1CCC(CN2CCOC(CNC(=O)c3cc(Cl)c(N)c4c3OCC4)C2)CC1 (stereo not shown) [Example 135, 4-amino-5-chloro-N-[{4-[(1-dimethylcarbamoyl-4-piperidinyl)methyl]-2-morpholinyl}methyl]-2,3-dihydrobenzo[b]furan-7-carboxamide 1.5 fumarate] |  | ++ | >30 mg/kg
2.8 nM | COC(=O)N1CCC(CN2CCOC(CNC(=O)c3cc(Cl)c(N)c4c3OCC4)C2)CC1 (stereo not shown) [Example 138] |  | ++ | 

IC50 (5-HT4 receptor) | Structure (SMILES) | melting point | Effect (Male Slc-ddy mice) | ED5% (mg/kg,i.v.) [1]
6.93 nM | COc1cc(N)c(Cl)cc1C(=O)NC[C@H]1CN(CC2CCN(C(=O)c3ccccc3OC(C)=O)CC2)CCO1 [Example 166] |  | ++ | >30 mg/kg
6.09 nM | COc1cc(N)c(Cl)cc1C(=O)NC[C@H]1CN(CC2CCN(C(=O)c3ccc(OC(C)=O)cc3)CC2)CCO1 [Example 169] |  | ++ | >30 mg/kg
25.9 nM | COc1cc(N)c(Cl)cc1C(=O)NC[C@H]1CN(CC2CCN(C(=O)CO)CC2)CCO1 [Example 198, 4-amino-5-chloro-N-[{4-[(1-hydroxyacetyl-4-piperidinyl)methyl]-2-morpholinyl}methyl]-2-methoxybenzamide hydrochloride] |  | ++ | >30 mg/kg
 | COc1cc(N)c(Cl)cc1C(=O)NCC1CN(CC2CCN(C(=O)n3ccnc3)CC2)CCO1 [Example 207, (S)-4-amino-5-chloro-N-[{4-[(1-imidazolecarbonyl-4-piperidinyl)methyl]-2-morpholinyl}methyl]-2-methoxybenzamide] |  | ++ | >30 mg/kg
45.2 nM | COc1cc(N)c(Cl)cc1C(=O)NC[C@H]1CN(CC2CCN(C(C)=O)CC2)CCO1 [Example 221] |  | ++ | >30 mg/kg
17.2 nM | COc1cc(N)c(Cl)cc1C(=O)NC[C@H]1CN(CC2CCN(C(=O)CNC(=O)c3ccccc3)CC2)CCO1 [Example 222] |  | ++ | >30 mg/kg
18.6 nM | COc1cc(N)c(Cl)cc1C(=O)NC[C@H]1CN(CC2CCN(C(=O)CC#N)CC2)CCO1 [Example 223] |  | ++ | 
14.5 nM | COCCC(=O)N1CCC(CN2CCO[C@@H](CNC(=O)c3cc(Cl)c(N)cc3OC)C2)CC1 [Example 224] |  | ++ | >30 mg/kg
20.2 nM | COc1cc(N)c(Cl)cc1C(=O)NC[C@H]1CN(CC2CCN(C(=O)[C@H](C)OC)CC2)CCO1 [Example 225] |  | ++ | >30 mg/kg
21.2 nM | COc1cc(N)c(Cl)cc1C(=O)NC[C@H]1CN(CC2CCN(C(=O)C3CCOC3)CC2)CCO1 (stereo partly shown) [Example 226] |  | ++ | >30 mg/kg
6.2 nM | COc1cc(N)c(Cl)cc1C(=O)NC[C@H]1CN(CC2CCN(C(=O)C(C)=O)CC2)CCO1 [Example 227] |  | ++ | 
13.1 nM | COc1cc(N)c(Cl)cc1C(=O)NC[C@H]1CN(CC2CCN(C(=O)c3cocn3)CC2)CCO1 [Example 228] |  | ++ | >30 mg/kg
18.1 nM | COc1cc(N)c(Cl)cc1C(=O)NC[C@H]1CN(CC2CCN(C(=O)c3nc[nH]n3)CC2)CCO1 [Example 229] |  | ++ | >30 mg/kg
0.64 nM | COc1cc(N)c(Cl)cc1C(=O)NC[C@H]1CN(CC2CCN(C(=O)c3ccc(C#N)cc3)CC2)CCO1 [Example 230] |  | ++ | 
9.18 nM | CC(=O)N1CCC(CN2CCO[C@@H](CNC(=O)c3cc(Cl)c(N)c4c3OCC4)C2)CC1 [Example 231] |  | ++ | 
7.34 nM | Nc1c(Cl)cc(C(=O)NC[C@H]2CN(CC3CCN(C(=O)C4CCOC4)CC3)CCO2)c2c1CCO2 (stereo partly shown) [Example 232] |  | ++ | 
12.1 nM | Nc1c(Cl)cc(C(=O)NC[C@H]2CN(CC3CCN(C(=O)CO)CC3)CCO2)c2c1CCO2 [Example 233, (S)-4-amino-5-chloro-N-[{4-[(1-hydroxyacetyl-4-piperidinyl)methyl]-2-morpholinyl}methyl]-2,3-dihydrobenzo[b]furan-7-carboxamide] |  | ++ | 
